Literature values, collected in patent US8945534B2, “Controlled activation of the reuterin-production machinery of Lactobacillus” (priority 2008, dated 2015).

System: Escherichia, Salmonella, Shigella, Proteus, Pseudomonas, Clostridium, Staphylococcus, Streptococcus, and Helicobacter pylori; several fungi and other …
Conditions: species representing all bacterial genera tested thus far; U.S. Pat. Nos. 5,439,678 etc.

O=CCCO [Reuterin, 3-hydroxypropionaldehyde]
inhibition of growth of microorganisms: capable of inhibiting growth
